Experimental data from PubChem BioAssay (NCI).
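Dose response: 5 concentrations. Exposure: 48 h. Format: 96-well plates. Endpoint: linear interpolation; highest concentration if not reached. TGI: concentration producing complete growth inhibition.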

Tests used:
Assay in all cases: NCI-60 cell line screen, 48 h
786-0 renal = tested on: 786-0 renal
A498 renal = tested on: A498 renal
A549 NSCLC = tested on: A549 NSCLC
ACHN renal = tested on: ACHN renal
CAKI-1 renal = tested on: CAKI-1 renal
CCRF-CEM leukemia = tested on: CCRF-CEM leukemia
DLD-1 colon = tested on: DLD-1 colon
DMS 114 small cell lung = tested on: DMS 114 small cell lung
DMS 273 small cell lung = tested on: DMS 273 small cell lung
EKVX NSCLC = tested on: EKVX NSCLC
HCC-2998 colon = tested on: HCC-2998 colon
HCT-116 colon = tested on: HCT-116 colon
HCT-15 colon = tested on: HCT-15 colon
HL-60(TB) leukemia = tested on: HL-60(TB) leukemia
HOP-18 NSCLC = tested on: HOP-18 NSCLC
HOP-62 NSCLC = tested on: HOP-62 NSCLC
HOP-92 NSCLC = tested on: HOP-92 NSCLC
HT29 colon = tested on: HT29 colon
IGROV1 ovarian = tested on: IGROV1 ovarian
K-562 leukemia = tested on: K-562 leukemia
KM12 colon = tested on: KM12 colon
KM20L2 colon = tested on: KM20L2 colon
LOX IMVI melanoma = tested on: LOX IMVI melanoma
LXFL 529 NSCLC = tested on: LXFL 529 NSCLC
M14 melanoma = tested on: M14 melanoma
M19-MEL melanoma = tested on: M19-MEL melanoma
MALME-3M melanoma = tested on: MALME-3M melanoma
MOLT-4 leukemia = tested on: MOLT-4 leukemia
NCI-H226 lung = tested on: NCI-H226 lung
NCI-H23 lung = tested on: NCI-H23 lung
NCI-H460 lung = tested on: NCI-H460 lung
NCI-H522 lung = tested on: NCI-H522 lung
OVCAR-3 ovarian = tested on: OVCAR-3 ovarian
OVCAR-4 ovarian = tested on: OVCAR-4 ovarian
OVCAR-5 ovarian = tested on: OVCAR-5 ovarian
OVCAR-8 ovarian = tested on: OVCAR-8 ovarian
RPMI-8226 leukemia = tested on: RPMI-8226 leukemia
RXF 393 renal = tested on: RXF 393 renal
SF-268 CNS = tested on: SF-268 CNS
SF-295 CNS = tested on: SF-295 CNS
SF-539 CNS = tested on: SF-539 CNS
SK-MEL-2 melanoma = tested on: SK-MEL-2 melanoma
SK-MEL-28 melanoma = tested on: SK-MEL-28 melanoma
SK-MEL-5 melanoma = tested on: SK-MEL-5 melanoma
SK-OV-3 ovarian = tested on: SK-OV-3 ovarian
SN12C renal = tested on: SN12C renal
SNB-19 CNS = tested on: SNB-19 CNS
SNB-75 CNS = tested on: SNB-75 CNS
SNB-78 CNS = tested on: SNB-78 CNS
SR leukemia = tested on: SR leukemia
SW-620 colon = tested on: SW-620 colon
TK-10 renal = tested on: TK-10 renal
U251 CNS = tested on: U251 CNS
UACC-257 melanoma = tested on: UACC-257 melanoma
UACC-62 melanoma = tested on: UACC-62 melanoma
UO-31 renal = tested on: UO-31 renal
XF 498 CNS = tested on: XF 498 CNS
COLO 205 colon = tested on: COLO 205 colon

Measured: TGI

COC(=O)C(/C(=N/NC(N)=O)C(=O)Nc1c(C)cccc1C(C)(C)C)c1nc2ccc(Cl)cc2[nH]c1=O (stereo unspecified)
not listed: COLO 205 colon
> 100 µM: all other assays above

Cc1ccc(S(=O)(=O)NC2CCCCO2)cc1 (stereo unspecified)
not listed: HL-60(TB) leukemia | SF-295 CNS | SK-MEL-2 melanoma | SR leukemia | TK-10 renal
> 100 µM: all other assays above

CC1(O)C(C)(O)C(C)(O)C1(C)O (stereo unspecified)
not listed: RPMI-8226 leukemia | SR leukemia
> 100 µM: all other assays above
